ChEMBL document CHEMBL4152332, “Discovery and synthesis of novel magnolol derivatives with potent anticancer activity in non-small cell lung cancer” (Eur J Med Chem, 2018)
Converted amounts (≈) assume the structure as drawn. Values belong to the compound of their own block, whether it stands above or below them.

Experiments:
[1] = system: HCC827; experiment: Antiproliferative activity against human HCC827 cells after 72 hrs by MTT assay; format: functional, cell-based; conditions: HCC827, 72 h
[2] = system: NCI-H1975; experiment: Antiproliferative activity against human NCI-H1975 cells after 72 hrs by MTT assay; format: functional, cell-based; conditions: NCI-H1975, 72 h
[3] = system: NCI-H460; experiment: Antiproliferative activity against human H460 cells after 72 hrs by MTT assay; format: functional, cell-based; conditions: NCI-H460, 72 h
[4] = Apparent aqueous solubility of the compound by HPLC analysis; format: physicochemical; conditions: aqueous solution
[5] = system: Mus musculus; experiment: Toxicity in Balb/c mouse implanted with mouse C26 cells assessed as change in body weight at 100 mg/kg, po qd treated for 10 days and measured every 2 days (RVB = 16.4%); format: organism-based; conditions: in vivo
[6] = system: A549; experiment: Antiproliferative activity against human A549 cells after 72 hrs by MTT assay; format: functional, cell-based; conditions: A549, 72 h
[7] = Antiproliferative activity against human SPC-A1 cells after 72 hrs by MTT assay; format: functional, cell-based; conditions: SPCA1, 72 h
[8] = system: NCI-H1650; experiment: Antiproliferative activity against human NCI-H1650 cells after 72 hrs by MTT assay; format: functional, cell-based; conditions: NCI-H1650, 72 h
[9] = system: PC-9; experiment: Antiproliferative activity against human PC9 cells after 72 hrs by MTT assay; format: functional, cell-based; conditions: PC-9, 72 h
[10] = system: NCI-H441; experiment: Antiproliferative activity against human H441 cells after 72 hrs by MTT assay; format: functional, cell-based; conditions: NCI-H441, 72 h
[11] = system: NCI-H358; experiment: Antiproliferative activity against human NCI-H358 cells after 72 hrs by MTT assay; format: functional, cell-based; conditions: NCI-H358, 72 h
[12] = system: NCI-H1975; experiment: Cell cycle arrest in human NCI-H1975 cells assessed as increase in accumulation at G0/G1 phase after 24 hrs by propidium iodide staining-based flow cytometric analysis; format: functional
[13] = system: NCI-H1975; experiment: Cell cycle arrest in human NCI-H1975 cells assessed as reduction in accumulation at S phase after 24 hrs by propidium iodide staining-based flow cytometric analysis; format: functional
[14] = system: NCI-H1975; experiment: Cell cycle arrest in human NCI-H1975 cells assessed as reduction in accumulation at G2/M phase after 24 hrs by propidium iodide staining-based flow cytometric analysis; format: functional
[15] = system: NCI-H1975; experiment: Cell cycle arrest in human NCI-H1975 cells assessed as accumulation at G0/G1 phase at 5 uM after 24 hrs by propidium iodide staining-based flow cytometric analysis (reference value: 56.11%); format: functional
[16] = system: NCI-H1975; experiment: Cell cycle arrest in human NCI-H1975 cells assessed as accumulation at S phase at 5 uM after 24 hrs by propidium iodide staining-based flow cytometric analysis (reference value: 22.93%); format: functional
[17] = system: NCI-H1975; experiment: Cell cycle arrest in human NCI-H1975 cells assessed as accumulation at G2/M phase at 5 uM after 24 hrs by propidium iodide staining-based flow cytometric analysis (reference value: 20.11%); format: functional
[18] = system: NCI-H1975; experiment: Cell cycle arrest in human NCI-H1975 cells assessed as accumulation at G0/G1 phase at 10 uM after 24 hrs by propidium iodide staining-based flow cytometric analysis (reference value: 56.11%); format: functional
[19] = system: NCI-H1975; experiment: Cell cycle arrest in human NCI-H1975 cells assessed as accumulation at S phase at 10 uM after 24 hrs by propidium iodide staining-based flow cytometric analysis (reference value: 22.93%); format: functional
[20] = system: NCI-H1975; experiment: Cell cycle arrest in human NCI-H1975 cells assessed as accumulation at G2/M phase at 10 uM after 24 hrs by propidium iodide staining-based flow cytometric analysis (reference value: 20.11%); format: functional
[21] = system: NCI-H1975; experiment: Cell cycle arrest in human NCI-H1975 cells assessed as accumulation at G0/G1 phase at 20 uM after 24 hrs by propidium iodide staining-based flow cytometric analysis (reference value: 56.11%); format: functional
[22] = system: NCI-H1975; experiment: Cell cycle arrest in human NCI-H1975 cells assessed as accumulation at S phase at 20 uM after 24 hrs by propidium iodide staining-based flow cytometric analysis (reference value: 22.93%); format: functional
[23] = system: NCI-H1975; experiment: Cell cycle arrest in human NCI-H1975 cells assessed as accumulation at G2/M phase at 20 uM after 24 hrs by propidium iodide staining-based flow cytometric analysis (reference value: 20.11%); format: functional
[24] = system: NCI-H1975; experiment: Induction of apoptosis in human NCI-H1975 cells after 48 hrs by annexin V/FITC-propidium iodide staining-based flow cytometric method; format: functional, cell-based
[25] = system: NCI-H1975; experiment: Induction of apoptosis in human NCI-H1975 cells assessed as early apoptotic cells at 5 uM after 48 hrs by annexin V/FITC-propidium iodide staining-based flow cytometric method ( Rvb = 6.09%); format: functional
[26] = system: NCI-H1975; experiment: Induction of apoptosis in human NCI-H1975 cells assessed as late apoptotic cells at 5 uM after 48 hrs by annexin V/FITC-propidium iodide staining-based flow cytometric method ( Rvb = 10.4%); format: functional
[27] = system: NCI-H1975; experiment: Induction of apoptosis in human NCI-H1975 cells assessed as necrotic cells at 5 uM after 48 hrs by annexin V/FITC-propidium iodide staining-based flow cytometric method ( Rvb = 1.01%); format: functional
[28] = system: NCI-H1975; experiment: Induction of apoptosis in human NCI-H1975 cells assessed as viable cells at 5 uM after 48 hrs by annexin V/FITC-propidium iodide staining-based flow cytometric method ( Rvb = 82.5%); format: functional; conditions: NCI-H1975, 48 h, read-out: Activity
[29] = system: NCI-H1975; experiment: Induction of apoptosis in human NCI-H1975 cells assessed as early apoptotic cells at 10 uM after 48 hrs by annexin V/FITC-propidium iodide staining-based flow cytometric method ( Rvb = 6.09%); format: functional
[30] = system: NCI-H1975; experiment: Induction of apoptosis in human NCI-H1975 cells assessed as late apoptotic cells at 10 uM after 48 hrs by annexin V/FITC-propidium iodide staining-based flow cytometric method ( Rvb = 10.4%); format: functional
[31] = system: NCI-H1975; experiment: Induction of apoptosis in human NCI-H1975 cells assessed as necrotic cells at 10 uM after 48 hrs by annexin V/FITC-propidium iodide staining-based flow cytometric method ( Rvb = 1.01%); format: functional
[32] = system: NCI-H1975; experiment: Induction of apoptosis in human NCI-H1975 cells assessed as viable cells at 10 uM after 48 hrs by annexin V/FITC-propidium iodide staining-based flow cytometric method ( Rvb = 82.5%); format: functional; conditions: NCI-H1975, 48 h, read-out: Activity
[33] = system: NCI-H1975; experiment: Induction of apoptosis in human NCI-H1975 cells assessed as early apoptotic cells at 20 uM after 48 hrs by annexin V/FITC-propidium iodide staining-based flow cytometric method ( Rvb = 6.09%); format: functional
[34] = system: NCI-H1975; experiment: Induction of apoptosis in human NCI-H1975 cells assessed as late apoptotic cells at 20 uM after 48 hrs by annexin V/FITC-propidium iodide staining-based flow cytometric method ( Rvb = 10.4%); format: functional
[35] = system: NCI-H1975; experiment: Induction of apoptosis in human NCI-H1975 cells assessed as necrotic cells at 20 uM after 48 hrs by annexin V/FITC-propidium iodide staining-based flow cytometric method ( Rvb = 1.01%); format: functional
[36] = system: NCI-H1975; experiment: Induction of apoptosis in human NCI-H1975 cells assessed as viable cells at 20 uM after 48 hrs by annexin V/FITC-propidium iodide staining-based flow cytometric method ( Rvb = 82.5%); format: functional; conditions: NCI-H1975, 48 h, read-out: Activity
[37] = system: HUVEC; experiment: Antimigratory activity against HUVEC after 24 to 48 hrs by phase contrast/fluorescence microscopic analysis; format: functional, cell-based; conditions: Homo sapiens
[38] = Antitumor activity against mouse C26 cells implanted in Balb/c mouse assessed as tumor growth inhibition at 100 mg/kg, po qd and measured every 2 days relative to control; format: functional; conditions: 48 h, read-out: TGI
[39] = system: Mus musculus; experiment: Toxicity in Balb/c mouse implanted with mouse C26 cells assessed as mouse death at 100 mg/kg, po qd treated for 10 days; format: organism-based; conditions: in vivo, 240 h
[40] = system: HCC827; experiment: Potency index, ratio of IC50 for honokiol to IC50 for test compound for antiproliferative activity against human HCC827 cells after 72 hrs by MTT assay; format: functional
[41] = system: NCI-H1975; experiment: Potency index, ratio of IC50 for honokiol to IC50 for test compound for antiproliferative activity against human NCI-H1975 cells after 72 hrs by MTT assay; format: functional
[42] = system: NCI-H460; experiment: Potency index, ratio of IC50 for honokiol to IC50 for test compound for antiproliferative activity against human H460 cells after 72 hrs by MTT assay; format: functional
[43] = system: HCC827; experiment: Potency index, ratio of IC50 for magnolol to IC50 for test compound for antiproliferative activity against human HCC827 cells after 72 hrs by MTT assay; format: functional
[44] = system: NCI-H1975; experiment: Potency index, ratio of IC50 for magnolol to IC50 for test compound for antiproliferative activity against human NCI-H1975 cells after 72 hrs by MTT assay; format: functional
[45] = system: NCI-H460; experiment: Potency index, ratio of IC50 for magnolol to IC50 for test compound for antiproliferative activity against human H460 cells after 72 hrs by MTT assay; format: functional

SMILES: C=CCc1ccc(O)c(-c2cc(CC=C)cc([C@@H]3C=C(C)CC[C@H]3C(C)C)c2O)c1
IC50 [1]: 15.8 µM
IC50 [2]: 16.6 µM
IC50 [3]: 18.6 µM
solubility [4]: < 10 µg/mL

SMILES: C=CCc1ccc(O)c(-c2cc(CC=C)cc(CN3CCN(CCOC)CC3)c2O)c1
Activity [5]: 12.4%
IC50 [1]: 6.8 µM
IC50 [2]: 7.12 µM
IC50 [3]: 5.92 µM
IC50 [6]: 7.89 µM
IC50 [7]: 7.27 µM
IC50 [8]: 5.12 µM
IC50 [9]: 13.5 µM
IC50 [10]: 10.2 µM
IC50 [11]: 7.49 µM
solubility [4]: 120 µg/mL (≈ 284 µM)
Activity [12]: Dose-dependent effect
Activity [13]: Dose-dependent effect
Activity [14]: Dose-dependent effect
Activity [15]: 61.59%
Activity [16]: 17.71%
Activity [17]: 18.05%
Activity [18]: 66.25%
Activity [19]: 21.85%
Activity [20]: 11.15%
Activity [21]: 69.91%
Activity [22]: 11.17%
Activity [23]: 16.86%
Activity [24]: Dose-dependent effect
Activity [25]: 6.13%
Activity [26]: 22.8%
Activity [27]: 0.47%
viability at 5 µM [28]: 72.6%
Activity [29]: 8.79%
Activity [30]: 22.5%
Activity [31]: 0.31%
viability at 10 µM [32]: 68.4%
Activity [33]: 25.1%
Activity [34]: 51.1%
Activity [35]: 0.9%
viability at 20 µM [36]: 22.9%
Activity [37]: Dose-dependent effect
inhibition in vivo at 100 mg/kg [38]: 4.14%
Activity [39]: Non-Toxic
Ratio IC50 [40]: 4
Ratio IC50 [41]: 4
Ratio IC50 [42]: 4
Ratio IC50 [43]: 8
Ratio IC50 [44]: 8
Ratio IC50 [45]: 8

SMILES: C=CCc1ccc(O)c(-c2cc(CC=C)cc(CN3CCCC(NC(=O)OC(C)(C)C)C3)c2O)c1 (stereo not drawn)
IC50 [1]: 15.5 µM
IC50 [2]: 13.9 µM
IC50 [3]: 16.4 µM

Second part, the compound after the results:

IC50 [1]: > 40 µM
IC50 [2]: > 40 µM
IC50 [3]: > 40 µM
SMILES: C=CCc1ccc(O)c(-c2cc(O)ccc2O)c1 [RANDAIOL]

IC50 [1]: > 40 µM
IC50 [2]: > 40 µM
IC50 [3]: > 40 µM
SMILES: C=CCc1ccc(O)c(-c2ccc(O)c(CC3CO3)c2)c1 (stereo not drawn)
